Patent US6579896B2, “Method for treating allergies using substituted pyrazoles” (Ortho-McNeil Pharmaceutical, Inc., priority 2000, dated 2003)

Tests used:
[1] = test system: PBMC from HDM-allergic donors (allergen-specific CD4 T cells); assay: Ex vivo human T cell-proliferation assay, house dust mite extracts (Der p, Der f); assay type: cell-based; settings: PBMC of four HDM-allergic donors, Der p or Der f extract, 7 days culture, FIG. 1B
[2] = test system: PBMC from ragweed-allergic donors (allergen-specific CD4 T cells); assay: Ex vivo human T cell-proliferation assay, ragweed extracts (short and giant); assay type: cell-based; settings: PBMC of two ragweed-allergic donors, short and giant ragweed extract, 7 days culture, FIG. 2B
[3] = test system: PBMC from allergic donors (T cells, ConA pan-T cell mitogen); assay: T cell proliferative responses induced by ConA; assay type: cell-based, human; settings: specificity control
[4] = test system: invariant chain (Ii) degradation by cathepsin S in PBMC; assay: Monitoring cathepsin S inhibition in human blood: p10Ii fragment accumulation (Western blot); assay type: cell-based; settings: PBMC from human blood, incubation for 24 h, SDS-PAGE / Western blot

CC(C)C[C@H](NC(=O)N1CCOCC1)C(=O)N[C@H](/C=C/S(=O)(=O)c1ccccc1)CCc1ccccc1 [LHVS, 4-morpholinecarboxamide, N-[(1S)-3-methyl-1-[[[(1S,2E)-1-(2-phenylethyl)-3-(phenylsulfonyl)-2-propenyl]amino]carbonyl]butyl]-]
T cell proliferation (3H-thymidine incorporation) induced by HDM extracts [1]: strongly inhibited
T cell proliferation (3H-thymidine incorporation) induced by ragweed extracts [2]: strongly inhibited
T cell proliferative responses induced by ConA ([3]; HDM-allergic donors): not affected
T cell proliferative responses induced by ConA ([3]; ragweed-allergic donors): not affected
p10Ii fragment of invariant chain (block in degradation of Ii) [4]: the p10Ii fragment was seen
